Measurements reported in patent US10167262B2, “Herbicidal substituted 3-arylpyrazoles” (FMC CORPORATION, priority 2014, dated 2019).
Like-named read-outs stand apart in the source and are kept apart here.

Key:
Format in all cases: in vivo
[1] = system: yellow nutsedge (Cyperus esculentus); experiment: Test C pre-/postemergence greenhouse test, plant response rating 0-100; settings: Cyperus; for pest or weed control at 62 g/ha: 62 g ai/ha; for pest or weed control at 125 g/ha: 125 g ai/ha; for pest or weed control at 250 g/ha: 250 g ai/ha; for pest or weed control at 500 g/ha: 500 g ai/ha
In short: (§1)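 Greenhouse test. Preemergence: seed in loam:sand, sprayed with formulated chemical (solvent + surfactant). Postemergence: 1–4 leaf plants, 2–18 cm, peat-based potting medium. Hold 13–15 d; score visually, 0 (none) to 100 (complete control); dash = not tested.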

[2] = system: winter wheat (Triticum aestivum); experiment: as above; settings: Triticum aestivum; for plant injury at 62 g/ha: 62 g ai/ha; for plant injury at 125 g/ha: 125 g ai/ha; for plant injury at 250 g/ha: 250 g ai/ha; for plant injury at 500 g/ha: 500 g ai/ha
In short: as §1

[3] = system: blackgrass (Alopecurus myosuroides); experiment: as above; settings: Alopecurus myosuroides; for pest or weed control at 62 g/ha: 62 g ai/ha; for pest or weed control at 125 g/ha: 125 g ai/ha; for pest or weed control at 250 g/ha: 250 g ai/ha; for pest or weed control at 500 g/ha: 500 g ai/ha
In short: as §1

[4] = system: ragweed (common ragweed, Ambrosia elatior); experiment: as above; settings: Ambrosia artemisiifolia; for pest or weed control at 62 g/ha: 62 g ai/ha; for pest or weed control at 125 g/ha: 125 g ai/ha; for pest or weed control at 250 g/ha: 250 g ai/ha; for pest or weed control at 500 g/ha: 500 g ai/ha
In short: as §1

[5] = system: morningglory (Ipomoea coccinea); experiment: as above; settings: Ipomoea; for pest or weed control at 62 g/ha: 62 g ai/ha; for pest or weed control at 125 g/ha: 125 g ai/ha; for pest or weed control at 250 g/ha: 250 g ai/ha; for pest or weed control at 500 g/ha: 500 g ai/ha
In short: as §1

[6] = system: large (Lg) crabgrass (Digitaria sanguinalis); experiment: as above; settings: Digitaria sanguinalis; for pest or weed control at 62 g/ha: 62 g ai/ha; for pest or weed control at 125 g/ha: 125 g ai/ha; for pest or weed control at 250 g/ha: 250 g ai/ha; for pest or weed control at 500 g/ha: 500 g ai/ha
In short: as §1

[7] = system: pigweed (Amaranthus retroflexus); experiment: as above; settings: Amaranthus retroflexus; for pest or weed control at 62 g/ha: 62 g ai/ha; for pest or weed control at 250 g/ha: 250 g ai/ha; for pest or weed control at 500 g/ha: 500 g ai/ha
In short: as §1

[8] = system: lambsquarters (Chenopodium album); experiment: as above; settings: Chenopodium album; for pest or weed control at 62 g/ha: 62 g ai/ha; for pest or weed control at 125 g/ha: 125 g ai/ha; for pest or weed control at 250 g/ha: 250 g ai/ha; for pest or weed control at 500 g/ha: 500 g ai/ha
In short: as §1

corn (Zea mays) = experiment: as above; settings: Zea mays, pre-emergence, Preemergence
In short: as §1

[9] = system: johnsongrass (Sorghum halepense); experiment: as above; settings: Sorghum halepense; for pest or weed control at 62 g/ha: 62 g ai/ha; for pest or weed control at 125 g/ha: 125 g ai/ha; for pest or weed control at 250 g/ha: 250 g ai/ha; for pest or weed control at 500 g/ha: 500 g ai/ha
In short: as §1

[10] = system: galium (catchweed bedstraw, Galium aparine); experiment: as above; settings: Galium; for pest or weed control at 62 g/ha: 62 g ai/ha; for pest or weed control at 125 g/ha: 125 g ai/ha; for pest or weed control at 250 g/ha: 250 g ai/ha; for pest or weed control at 500 g/ha: 500 g ai/ha
In short: as §1

[11] = system: velvetleaf (Abutilon theophrasti); experiment: as above; settings: Abutilon theophrasti; for pest or weed control at 62 g/ha: 62 g ai/ha; for pest or weed control at 125 g/ha: 125 g ai/ha; for pest or weed control at 250 g/ha: 250 g ai/ha; for pest or weed control at 500 g/ha: 500 g ai/ha
In short: as §1

[12] = system: windgrass (Apera spica-venti); experiment: Test C postemergence greenhouse test, plant response rating 0-100; settings: for Plant response rating, Windgrass: scale 0 to 100
In short: (§2)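 Each weed species was grown in potting medium and sprayed after emergence, when 2–18 cm tall. Ratings, made by eye relative to control pots, were recorded 13–15 days later using a scale where 0 is no effect.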

[13] = system: winter barley (Hordeum vulgare); experiment: as above; settings: for Plant response rating, Barley: scale 0 to 100
In short: as §2

[14] = post-emergence, Postemergence, read-out: Plant response rating (0 to 100), Nutsedge, Yellow
[15] = post-emergence, Postemergence, scale 0 to 100
[16] = pre-emergence, Preemergence, read-out: Plant response rating, Nutsedge, Yellow
[17] = post-emergence, Postemergence, read-out: Plant response rating (0 to 100), Wheat
[18] = pre-emergence, Preemergence, read-out: Plant response rating, Wheat
[19] = post-emergence, Postemergence, read-out: Plant response rating (0 to 100), Blackgrass
[20] = pre-emergence, Preemergence, read-out: Plant response rating, Blackgrass
[21] = post-emergence, Postemergence, read-out: Plant response rating (0 to 100), Ragweed
[22] = pre-emergence, Preemergence, read-out: Plant response rating, Ragweed
[23] = post-emergence, Postemergence, read-out: Plant response rating (0 to 100), Morningglory
[24] = pre-emergence, Preemergence, read-out: Plant response rating, Morningglory
[25] = post-emergence, Postemergence, read-out: Plant response rating (0 to 100), Crabgrass, Large
[26] = pre-emergence, Preemergence, read-out: Plant response rating, Crabgrass, Large
[27] = post-emergence, Postemergence, read-out: Plant response rating (0 to 100), Lambsquarters
[28] = pre-emergence, Preemergence, read-out: Plant response rating, Lambsquarters
[29] = post-emergence, Postemergence, read-out: Plant response rating (0 to 100), Johnsongrass
[30] = pre-emergence, Preemergence, read-out: Plant response rating, Johnsongrass
[31] = post-emergence, Postemergence, read-out: Plant response rating (0 to 100), Galium
[32] = pre-emergence, Preemergence, read-out: Plant response rating, Galium
[33] = post-emergence, Postemergence, read-out: Plant response rating (0 to 100), Velvetleaf
[34] = pre-emergence, Preemergence, read-out: Plant response rating, Velvetleaf

C#CCn1cc(C(=O)c2ccccc2)c(-c2cc(Cl)cc(Cl)c2)n1 [Compound 39, [3-(3,5-dichlorophenyl)-1-(2-propyn-1-yl)-1H-pyrazol-4-yl]phenylmethanone]
100%: pest or weed control at 250 g/ha [8, 15] | pest or weed control at 500 g/ha [8, 15] | pest or weed control at 125 g/ha [8, 28] | pest or weed control at 250 g/ha ([8]; pre-emergence, Preemergence) | pest or weed control at 500 g/ha ([8]; pre-emergence, Preemergence)
45%: pest or weed control at 250 g/ha ([4]; pre-emergence, Preemergence) | pest or weed control at 500 g/ha ([4]; pre-emergence, Preemergence) | pest or weed control at 62 g/ha ([7]; pre-emergence, Preemergence, read-out: Plant response rating, Pigweed)
5%: pest or weed control at 500 g/ha [1, 15] | pest or weed control at 250 g/ha [6, 15] | pest or weed control at 250 g/ha [9, 15] | pest or weed control at 500 g/ha [9, 15] | pest or weed control at 250 g/ha ([10]; pre-emergence, Preemergence)
35%: pest or weed control at 250 g/ha [4, 15] | pest or weed control at 500 g/ha [4, 15]
10%: pest or weed control at 62 g/ha [4, 21] | pest or weed control at 125 g/ha [4, 21] | pest or weed control at 250 g/ha [5, 15] | pest or weed control at 500 g/ha [5, 15]
55%: pest or weed control at 62 g/ha [11, 34]
85%: pest or weed control at 250 g/ha ([7]; pre-emergence, Preemergence) | pest or weed control at 125 g/ha [11, 33] | pest or weed control at 250 g/ha [11, 15]
75%: pest or weed control at 125 g/ha ([7]; pre-emergence, Preemergence, 125 g ai/ha, read-out: Plant response rating, Pigweed) | pest or weed control at 62 g/ha [11, 33]
65%: pest or weed control at 125 g/ha [11, 34] | pest or weed control at 250 g/ha ([11]; pre-emergence, Preemergence)
98%: pest or weed control at 250 g/ha [7, 15] | pest or weed control at 500 g/ha [7, 15] | pest or weed control at 500 g/ha [11, 15]
15%: pest or weed control at 500 g/ha [6, 15]
0%: pest or weed control at 62 g/ha [1, 14] | pest or weed control at 125 g/ha [1, 14] | pest or weed control at 250 g/ha [1, 15] | pest or weed control at 62 g/ha [1, 16] | pest or weed control at 125 g/ha [1, 16] | pest or weed control at 250 g/ha ([1]; pre-emergence, Preemergence) | pest or weed control at 500 g/ha ([1]; pre-emergence, Preemergence) | plant injury at 62 g/ha [2, 17] | plant injury at 125 g/ha [2, 17] | plant injury at 250 g/ha [2, 15] | plant injury at 500 g/ha [2, 15] | plant injury at 62 g/ha [2, 18] | plant injury at 125 g/ha [2, 18] | plant injury at 250 g/ha ([2]; pre-emergence, Preemergence) | plant injury at 500 g/ha ([2]; pre-emergence, Preemergence) | pest or weed control at 62 g/ha [3, 19] | pest or weed control at 125 g/ha [3, 19] | pest or weed control at 250 g/ha [3, 15] | pest or weed control at 500 g/ha [3, 15] | pest or weed control at 62 g/ha [3, 20] | pest or weed control at 125 g/ha [3, 20] | pest or weed control at 250 g/ha ([3]; pre-emergence, Preemergence) | pest or weed control at 500 g/ha ([3]; pre-emergence, Preemergence) | pest or weed control at 62 g/ha [4, 22] | pest or weed control at 62 g/ha [5, 23] | pest or weed control at 125 g/ha [5, 23] | pest or weed control at 62 g/ha [6, 25] | pest or weed control at 125 g/ha [6, 25] | pest or weed control at 62 g/ha [6, 26] | pest or weed control at 125 g/ha [6, 26] | pest or weed control at 250 g/ha ([6]; pre-emergence, Preemergence) | pest or weed control at 500 g/ha ([6]; pre-emergence, Preemergence) | Corn plant response rating (crop injury, 0 = no effect, 100 = complete kill) at 62 g/ha (corn (Zea mays); 62 g ai/ha) | Corn plant response rating (crop injury, 0 = no effect, 100 = complete kill) at 125 g/ha (corn (Zea mays); 125 g ai/ha) | Corn plant response rating (crop injury, 0 = no effect, 100 = complete kill) at 250 g/ha (corn (Zea mays); 250 g ai/ha) | pest or weed control at 62 g/ha [9, 29] | pest or weed control at 125 g/ha [9, 29] | pest or weed control at 62 g/ha [9, 30] | pest or weed control at 125 g/ha [9, 30] | pest or weed control at 250 g/ha ([9]; pre-emergence, Preemergence) | pest or weed control at 500 g/ha ([9]; pre-emergence, Preemergence) | pest or weed control at 62 g/ha [10, 31] | pest or weed control at 125 g/ha [10, 31] | pest or weed control at 250 g/ha [10, 15] | pest or weed control at 500 g/ha [10, 15] | pest or weed control at 62 g/ha [10, 32] | pest or weed control at 125 g/ha [10, 32]
0: Plant response rating (0 to 100), Windgrass ([12]; 62 g ai/ha) | Plant response rating (0 to 100), Windgrass ([12]; 125 g ai/ha) | Plant response rating, Windgrass ([12]; 250 g ai/ha) | Plant response rating, Windgrass ([12]; 500 g ai/ha) | Plant response rating (0 to 100), Barley ([13]; 62 g ai/ha) | Plant response rating (0 to 100), Barley ([13]; 125 g ai/ha) | Plant response rating, Barley ([13]; 250 g ai/ha) | Plant response rating, Barley ([13]; 500 g ai/ha)
20%: pest or weed control at 125 g/ha [4, 22] | pest or weed control at 62 g/ha [5, 24] | pest or weed control at 125 g/ha [5, 24] | pest or weed control at 250 g/ha ([5]; pre-emergence, Preemergence) | pest or weed control at 500 g/ha ([5]; pre-emergence, Preemergence)
95%: pest or weed control at 500 g/ha ([7]; pre-emergence, Preemergence)
30%: pest or weed control at 62 g/ha [8, 28]
80%: pest or weed control at 62 g/ha [8, 27] | pest or weed control at 125 g/ha [8, 27] | pest or weed control at 500 g/ha ([10]; pre-emergence, Preemergence) | pest or weed control at 500 g/ha ([11]; pre-emergence, Preemergence)
90%: pest or weed control at 62 g/ha ([7]; post-emergence, Postemergence, read-out: Plant response rating (0 to 100), Pigweed)
